Earlier results on 2 compounds are cited in patent US6500833B1, “(+)-Hydroxyrisperidone compositions and methods” (priority 1998, dated 2002).

The structures appear in SMILES notation.

The conditions of the data set: condition associated with torsades de pointes.

As for `Cc1nc2n(c(=O)c1CCN1CCC(c3noc4cc(F)ccc34)CC1)CCCC2O` (racemic) [hydroxyrisperidone, 9-hydroxyrisperidone], the “prolongation of QT interval” value is recorded as “implicated in a prolongation of QT interval”.

As for `Cc1nc2n(c(=O)c1CCN1CCC(c3noc4cc(F)ccc34)CC1)CCCC2` [risperidone, Risperidone], the “prolongation of QT interval” value was “implicated in a prolongation of QT interval”.
